The structures appear in SMILES notation.

For assay [1], the system named is HGPS cells. Nature of the assay: Chromatin, nucleolar and SUN1 organization in HGPS cells (IF). Particulars: Remodelin 1 μM. It is filed as cell-based, human. As to the method: The following KAT and KDAC inhibitors were used in the nuclear shape rescue screen, incubating cells with the molecules for 16 hours: trichostatin A (1 μM), sodium butyrate (5 mM), tubacin (10 μM), SAHA (5 μM), curcumin (10 μM), garcinol (50 μM), anacardic acid (1 μM), MB-3 (5 μM), 4-(4-chlorophenyl)-2-(2-cyclopentylidenehydrazinyl)thiazole (Compound 2) (50 μM), 4-(4-chlorophenyl)-2-(2-cyclopentylidene-1-(prop-2-yn-1-yl)hydrazinyl)thiazole (Compound 3) (50 μM) and cyclopentylidene-[4-(4-cyanophenyl)thiazol-2-yl)hydrazine (Compound 1) (Remodelin) (10 to 50 μM). For HGPS cellular fitness assays, Remodelin was incubated at 1 μM for 1 to 10 days, renewing the medium every 3 days. For long-term senescence assay, cells were kept and passaged in medium containing 1 μM Remodelin or DMSO only for 12 population doublings. Senescence was assessed after 8 days of Remodelin treatment when cells were at Population Doubling 12, and then after several weeks of Remodelin treatment, when cells reached Population Doubling 24 using the Senescence β-Galactosidase Staining Kit #9860 from Cell Signaling. Nocodazole, colchicine and latrunculin A (Sigma-Aldrich) were used at 200 ng/ml, 1 μg/ml and 1 μM respectively. Aphidicolin (Sigma-Aldrich) was used at 5 μg/ml for 16 h. Farnesyltransferase inhibitor FTI-277 was purchased from Tocris Bioscience and used at 5 μM. […]

Assay [2] deals with T1, NAT10 purified from HEK293 cells (Homo sapiens, UniProt Q9H0A0).
T1 construct: made in house; host or cells: HEK293 (transient transfection, anti-FLAG immunopurification, elution with triple-Flag peptide)
T1 sequence (Q9H0A0 1-1025): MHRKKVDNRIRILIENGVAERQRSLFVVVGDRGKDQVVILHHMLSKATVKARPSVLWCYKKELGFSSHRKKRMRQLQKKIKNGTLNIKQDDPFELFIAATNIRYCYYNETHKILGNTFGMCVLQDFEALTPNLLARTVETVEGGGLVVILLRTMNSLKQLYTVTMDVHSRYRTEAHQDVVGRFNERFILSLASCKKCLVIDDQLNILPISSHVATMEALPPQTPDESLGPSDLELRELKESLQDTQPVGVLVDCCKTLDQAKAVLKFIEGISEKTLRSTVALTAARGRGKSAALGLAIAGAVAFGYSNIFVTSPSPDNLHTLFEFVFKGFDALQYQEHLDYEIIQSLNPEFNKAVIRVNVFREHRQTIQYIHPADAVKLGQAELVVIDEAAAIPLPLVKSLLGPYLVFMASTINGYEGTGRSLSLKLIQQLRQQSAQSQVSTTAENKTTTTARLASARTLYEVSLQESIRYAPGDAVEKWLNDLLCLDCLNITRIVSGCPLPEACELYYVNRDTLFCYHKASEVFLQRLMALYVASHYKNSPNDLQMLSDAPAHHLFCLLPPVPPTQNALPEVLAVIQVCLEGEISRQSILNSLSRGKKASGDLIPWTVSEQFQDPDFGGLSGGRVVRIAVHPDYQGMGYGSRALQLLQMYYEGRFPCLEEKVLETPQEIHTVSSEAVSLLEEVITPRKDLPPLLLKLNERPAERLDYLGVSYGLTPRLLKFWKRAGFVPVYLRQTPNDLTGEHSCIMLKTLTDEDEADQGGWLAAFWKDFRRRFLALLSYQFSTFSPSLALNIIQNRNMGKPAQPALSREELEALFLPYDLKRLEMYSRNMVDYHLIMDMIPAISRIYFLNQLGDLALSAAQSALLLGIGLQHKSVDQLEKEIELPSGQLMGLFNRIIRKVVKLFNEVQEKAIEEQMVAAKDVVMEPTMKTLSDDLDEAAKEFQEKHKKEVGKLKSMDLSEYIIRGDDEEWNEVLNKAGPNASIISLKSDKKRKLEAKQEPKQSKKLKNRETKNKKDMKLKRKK
The assay is described as follows: Lysine acetyltransferase (KAT) assay with tubulin substrate. The format is biochemical. Particulars: compounds at 50 μM. As to the method: HEK293 cells were transiently transfected with NAT10 constructs and harvested after 48 hours in PBS. Cells were lysed for 5 minutes at room temperature in IP lysis buffer (20 mM Tris pH 7.5, 40 mM NaCl, 2 mM MgCl2, 0.5% NP-40) freshly supplemented with 50 U/ml benzonase and EDTA-free protease inhibitor cocktail (Roche). After this initial lysis step, NaCl concentration was adjusted to 450 mM and samples were incubated at 4° C. with rotation. Lysates were clarified by centrifugation (13,200 rpm, 20 minutes at 4° C.), and after recovery NaCl concentration was equilibrated to 150 mM. Lysates were used for immunoprecipitation reaction in IP buffer (25 mM Tris pH 7.5, 150 mM NaCl, 1.5 mM DTT, 10% glycerol, 0.5% NP-40) supplemented with protease inhibitors. Target proteins were captured with anti-FLAG antibody (M2, Sigma-Aldrich) coupled to protein A/G-Dynabeads (Life Sciences). Complexes were washed with IP buffer containing incrementally increasing amounts of NaCl (250 mM, 500 mM, and 1M). Following this, the immuno-complexes were washed in TBS containing gradually decreasing amounts on NaCl (1M, 500 mM, 250 mM, and 150 mM). At this point, elution was carried out using excess triple-Flag peptide (Sigma Aldrich). Eluted proteins were loaded on a gel and the purification was verified by Silver Staining (SilverQuest kit, Life Sciences). […]

As to `N#Cc1ccc(-c2csc(NN=C3CCCC3)n2)cc1` [Compound 1, 4-(4-Cyanophenyl)-2-(2-cyclopentylidenehydrazinyl)thiazole], in assay [1], the “SUN1 accumulation at the nuclear envelope” value is given as “decreased SUN1 accumulation at the nuclear envelope”; the “chromatin and nucleolar organization (H3K9me3 and NAT10 staining)” value was “improved chromatin and nucleolar organization”. Further, in assay [2], the “NAT10 WT KAT activity towards tubulin” value is “abolished NAT10 WT KAT activity”.
In the case of `C#CCN(N=C1CCCC1)c1nc(-c2ccc(Cl)cc2)cs1` [Compound 3, 4-(4-Chlorophenyl)-2-(2-cyclopentylidene-1-(prop-2-yn-1-yl)hydrazinyl)thiazole], the “NAT10 WT KAT activity towards tubulin” value in assay [2] is reported as “abolished NAT10 WT KAT activity”.
